How the values were obtained:
[1] = Cytotoxicity against African green monkey Vero cells by MTT assay; assay type: toxicity, cell-based; conditions: chlorocebus sabaeus
[2] = tested on: A549; experiment: Cytotoxicity against human A549 cells by MTT assay; assay type: functional
[3] = tested on: Influenza A virus; experiment: Antiviral activity against Influenza A virus A/California/7/2009(H1N1) strain infected in A549 cells assessed as reduction in viral infection incubated for 48 hrs by qPCR analysis; assay type: functional, organism-based; conditions: A549, 48 h
[4] = Selectivity index, ratio of CC50 for African green monkey Vero cells to EC50 for Zaire ebolavirus infected in African green monkey Vero cells; assay type: toxicity; conditions: read-out: Ratio CC50/EC50
[5] = Antiproliferative against African green monkey Vero cells; assay type: toxicity, cell-based; conditions: chlorocebus sabaeus
[6] = Selectivity ratio of CC50 for human A549 cells to EC50 for Influenza A virus A/California/7/2009(H1N1) strain infected in A549 cells; assay type: toxicity, cell-based; conditions: read-out: Ratio CC50/EC50
[7] = tested on: Zaire ebolavirus; experiment: Antiviral activity against Zaire ebolavirus infected in African green monkey Vero cells assessed as reduction in virus induced cytopathic effect preincubated with cells for 1 hr followed by viral infection and measured after 48 hrs; assay type: functional, organism-based
[8] = Selectivity index, ratio of CC50 for African green monkey Vero cells to EC50 for Dengue virus 2 infected in African green monkey Vero cells; assay type: toxicity; conditions: read-out: Ratio CC50/EC50
[9] = Selectivity index, ratio of CC50 for African green monkey Vero cells to EC50 for Zika virus GZ01/2016 infected in African green monkey Vero cells; assay type: toxicity; conditions: read-out: Ratio CC50/EC50
[10] = tested on: dengue virus type 2; experiment: Antiviral activity against Dengue virus 2 infected in African green monkey Vero cells assessed as reduction in virus induced cytopathic effect preincubated with cells for 12 hrs followed by viral infection and measured after 48 hrs by qRT-PCR analysis; assay type: functional, organism-based
[11] = Selectivity index, ratio of CC50 for African green monkey Vero cells to EC50 for SARS-COV-2; assay type: toxicity; conditions: read-out: Ratio CC50/EC50
[12] = Cytotoxicity against African green monkey Vero cells by Celltiter blue assay; assay type: toxicity, cell-based; conditions: chlorocebus sabaeus
[13] = tested on: SARS-CoV-2; experiment: Antiviral activity against SARS-COV-2 infected in African green monkey Vero cells assessed as reduction in virus induced cytopathic effect preincubated with cells for 15 mins followed by viral infection and measured after 2 days by RT-PCR analysis; assay type: functional, organism-based; conditions: Severe acute respiratory syndrome coronavirus 2, Vero
[14] = Antiproliferative against African green monkey Vero cells incubated for 40 hrs by Celltiter assay; assay type: toxicity, cell-based; conditions: chlorocebus sabaeus
[15] = tested on: Zika virus; experiment: Antiviral activity against Zika virus GZ01/2016 infected in African green monkey Vero cells assessed as reduction in virus induced cytopathic effect preincubated with cells for 12 hrs followed by viral infection and measured after 48 hrs by qRT-PCR analysis; assay type: functional, organism-based; conditions: GZ01/2016, Vero

CC[C@H]1OC(=O)[C@H](C)[C@@H](O[C@H]2C[C@@](C)(OC)[C@@H](O)[C@H](C)O2)[C@H](C)[C@@H](O[C@@H]2O[C@H](C)C[C@H](N(C)C)[C@H]2O)[C@](C)(O)C[C@@H](C)CN(C)[C@H](C)[C@@H](O)[C@]1(C)O [AZITHROMYCIN] gave a CC50 [1] greater than 130 µM, a CC50 [2] greater than 600 µM and an EC50 [3] of 68 µM. The selectivity ratio [4] was greater than 25, the CC50 [5] was 810 µM and the selectivity ratio [6] was greater than 8.8. For the same molecule, the EC50 [7] was 5.1 µM, the selectivity ratio [8] was 218 and the selectivity ratio [9] was 123. The EC50 [10] was 3.71 µM, the selectivity ratio [11] was greater than 19 and the CC50 [12] was greater than 40 µM. The EC50 [13] was 2.12 µM, the EC90 ([13]; 48.25 h, time 2895 min) was 8.65 µM and the CC50 at 40 h [14] was 810 µM. The EC50 [15] was 6.59 µM.

From ChEMBL document CHEMBL5244259, “Azithromycin: The First Broad-spectrum Therapeutic” (Eur J Med Chem, 2020)
